Patent US6525001B1, “Substituted pyrimidine and pyridine herbicides” (Mid-American Commercialization Corporation, priority 1997, dated 2003)

Tests used:
Type in all cases: in vivo
[1] = system: blackgrass (Alopecurus myosuroides); experiment: Test B pre-/postemergence; parameters: key: 0 is no effect; 10 is complete control
Excerpt: (§1) Seeds of bedstraw (Galium aparine), blackgrass (Alopecurus myosuroides), broadleaf signalgrass (Brachiaria decumbens), cocklebur (Xanthium strumarium), corn (Zea mays), crabgrass (Digitaria sanguinalis), giant foxtail (Setaria faberii), lambsquarters (Chenopodium album), momingglory (Ipomoea hederacea), pigweed (Amaranthus retroflexus), rape (Brassica napus), soybean (Glycine max), sugar beet (Beta vulgaris), velvetleaf (Abutilon theophrasti), wheat (Triticum aestivum), wild oat (Avena fatua) and purple nutsedge (Cyperus rotundus) tubers were planted and treated preemergence with test chemicals formulated in a non-phytotoxic solvent mixture which included a surfactant.
(§2) At the same time, these crop and weed species were also treated with postemergence applications of test chemicals formulated in the same manner. Plants ranged in height from 2 to 18 cm (1- to 4-leaf stage) for postemergence treatments. Plant species in the flood test consisted of rice (Oryza sativa), smallflower flatsedge (Cyperus difformis), duck salad (Heteranthera limosa) and bamyardgrass (Echinochloa crus-galli) grown to the 2-leaf stage for testing. Treated plants and controls were maintained in a greenhouse for twelve to sixteen days, after which all species were compared to controls and visually evaluated. Plant response ratings, summarized in Table B, are based on a scale of 0 to 10 where 0 is no effect and 10 is complete control. A dash (−) response means no test result.

[2] = system: broadleaf signalgrass (Brachiaria decumbens); experiment: Test B pre-/postemergence; parameters: key: 0 is no effect; 10 is complete control
Excerpt: as §1, §2

[3] = system: crabgrass (Digitaria sanguinalis); experiment: Test B pre-/postemergence; parameters: key: 0 is no effect; 10 is complete control
Excerpt: as §1, §2

corn (Zea mays) = experiment: Test B pre-/postemergence; parameters: key: 0 is no effect; 10 is complete control
Excerpt: as §1, §2

rape (Brassica napus) = experiment: Test B pre-/postemergence; parameters: key: 0 is no effect; 10 is complete control
Excerpt: as §1, §2

[4] = system: wheat (Triticum aestivum); experiment: Test B pre-/postemergence; parameters: key: 0 is no effect; 10 is complete control
Excerpt: as §1, §2

[5] = system: giant foxtail (Setaria faberii); experiment: Test B pre-/postemergence; parameters: key: 0 is no effect; 10 is complete control
Excerpt: as §1, §2

[6] = system: duck salad (Heteranthera limosa); experiment: Test B flood test
In short: (§3)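 Plants were grown to the 2-leaf stage before treatment with test chemical, then held in a greenhouse for twelve to sixteen days. Injury was visually rated against untreated controls on a 0–10 scale, where 0 is no effect and 10 is complete control.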

rice (Oryza sativa) = experiment: Test B flood test
In short: as §3

[7] = system: smallflower flatsedge (Cyperus difformis); experiment: Test B flood test
In short: as §3

[8] = system: bamyardgrass (Echinochloa crus-galli); experiment: Test B flood test
In short: as §3

[9] = Rate 62 g/ha, Postemergence (flood test)
[10] = Rate 125 g/ha, Postemergence, flood test
[11] = Rate 250 g/ha, Postemergence (flood test species)

## Cc1cnc(-c2ccc(F)c(Cl)c2)nc1Cc1cccc(C(F)(F)F)c1 [Compound 25]
[1]; Rate 62 g/ha, Postemergence
  Plant response rating, Blackgrass: 3
[1]; Rate 62 g/ha, Preemergence
  Blackgrass plant response rating: 1
[1]; Rate 125 g/ha, Postemergence
  Plant response rating, Blackgrass: 4
[1]; Rate 125 g/ha, Preemergence
  Blackgrass plant response rating: 5
[1]; Rate 250 g/ha, Postemergence
  Plant response rating, Blackgrass: 8
[1]; Rate 250 g/ha, Preemergence
  Plant response rating, Blackgrass: 8
[2]; Rate 62 g/ha, Postemergence
  Plant response rating, B. signalgrass: 2
[2]; Rate 62 g/ha, Preemergence
  B. signalgrass plant response rating: 1
[2]; Rate 125 g/ha, Postemergence
  Plant response rating, B. signalgrass: 3
[2]; Rate 125 g/ha, Preemergence
  B. signalgrass plant response rating: 2
[2]; Rate 250 g/ha, Postemergence
  Plant response rating, B. signalgrass: 3
[2]; Rate 250 g/ha, Preemergence
  Plant response rating, B. signalgrass: 6
[3]; Rate 62 g/ha, Postemergence
  Plant response rating, Crabgrass: 7
[3]; Rate 62 g/ha, Preemergence
  Crabgrass plant response rating: 0
[3]; Rate 125 g/ha, Postemergence
  Plant response rating, Crabgrass: 7
[3]; Rate 125 g/ha, Preemergence
  Crabgrass plant response rating: 0
[3]; Rate 250 g/ha, Postemergence
  Plant response rating, Crabgrass: 10
[3]; Rate 250 g/ha, Preemergence
  Plant response rating, Crabgrass: 1
Corn (Zea mays); Rate 62 g/ha, Postemergence
  Plant response rating, Corn: 1
Corn (Zea mays); Rate 62 g/ha, Preemergence
  Corn plant response rating: 0
Corn (Zea mays); Rate 125 g/ha, Postemergence
  Plant response rating, Corn: 2
Corn (Zea mays); Rate 125 g/ha, Preemergence
  Corn plant response rating: 0
Corn (Zea mays); Rate 250 g/ha, Postemergence
  Plant response rating, Corn: 3
Corn (Zea mays); Rate 250 g/ha, Preemergence
  Plant response rating, Corn: 0
Rape (Brassica napus); Rate 62 g/ha, Postemergence
  Plant response rating, Rape: 10
Rape (Brassica napus); Rate 62 g/ha, Preemergence
  Rape plant response rating: 2
Rape (Brassica napus); Rate 125 g/ha, Postemergence
  Plant response rating, Rape: 10
Rape (Brassica napus); Rate 125 g/ha, Preemergence
  Rape plant response rating: 7
Rape (Brassica napus); Rate 250 g/ha, Postemergence
  Plant response rating, Rape: 10
Rape (Brassica napus); Rate 250 g/ha, Preemergence
  Plant response rating, Rape: 10
[4]; Rate 62 g/ha, Postemergence
  Plant response rating, Wheat: 2
[4]; Rate 62 g/ha, Preemergence
  Wheat plant response rating: 0
[4]; Rate 125 g/ha, Postemergence
  Plant response rating, Wheat: 4
[4]; Rate 125 g/ha, Preemergence
  Wheat plant response rating: 1
[4]; Rate 250 g/ha, Postemergence
  Plant response rating, Wheat: 4
[4]; Rate 250 g/ha, Preemergence
  Plant response rating, Wheat: 2
[5]; Rate 62 g/ha, Postemergence
  Plant response rating, Giant foxtail: 3
[5]; Rate 62 g/ha, Preemergence
  Giant foxtail plant response rating: 1
[5]; Rate 125 g/ha, Postemergence
  Plant response rating, Giant foxtail: 6
[5]; Rate 125 g/ha, Preemergence
  Giant foxtail plant response rating: 4
[5]; Rate 250 g/ha, Postemergence
  Plant response rating, Giant foxtail: 8
[5]; Rate 250 g/ha, Preemergence
  Plant response rating, Giant foxtail: 9
[6]; [9]
  Plant response rating, Ducksalad: 3
[6]; [10]
  Plant response rating, Ducksalad: 4
[6]; [11]
  Plant response rating, Ducksalad: 6
Rice (Oryza sativa); [9]
  Plant response rating, Rice: 3
Rice (Oryza sativa); [10]
  Plant response rating, Rice: 4
Rice (Oryza sativa); [11]
  Plant response rating, Rice: 5
[7]; [9]
  Plant response rating, S. Flatsedge: 3
[7]; [10]
  Plant response rating, S. Flatsedge: 5
[7]; [11]
  Plant response rating, S. Flatsedge: 7
[8]; [9]
  Plant response rating, Barnyardgrass: 3
[8]; [10]
  Plant response rating, Barnyardgrass: 4
[8]; [11]
  Plant response rating, Barnyardgrass: 5
